The values that follow are results of earlier work, collected in paper PMC11187563, “The importance of tyrosines in multimers of cyclic RGD nonapeptides: towards αvβ6-integrin targeted radiotherapeutics” (RSC Medicinal Chemistry, 2024).

In the data set the test system is αvβ6-integrin. The following applies: compared with its two siblings with one Phe replaced by a Tyr; cited from earlier work.

In the case of cyclo[FRGDLAFp(NMe)K], the “αvβ6-integrin affinity and subtype selectivity” value is “slightly better αvβ6-integrin affinity and subtype selectivity”.
